Patent US7763446B2, “Chimeric DNA-binding proteins” (Massachusetts Institute of Technology, priority 1994, dated 2010)

Legend:
[1] = system: ZFHD1-FKBPx3 with FKBPx3-VP16 or FKBPx3-p65, pZHWTx8SVSEAP reporter; experiment: FK1012-dependent SEAP transcriptional activation in 293 cells; type: cell-based; conditions: 24 hour incubation
Experimental: 293 cells were grown in D-MEM (Gibco BRL) supplemented with 10% Bovine Calf Serum. Cells in 35 mm dishes (2.5×10^5 cells/dish) were transiently transfected with use of calcium phosphate precipitation (Ausubel et. al., 1994). Each dish received 375 ng pZHWTx8SVSEAP; 12 ng pCGNNZFHD1-FKBPx3 and 25 ng pCGNNFKBPx3-VP16 or pCGNNFKBPx3-p65. Following transfection, 2 ml fresh media was added and supplemented with FK1012 to the desired concentration. After a 24 hour incubation […] aliquot of media was removed and assayed for SEAP activity as described (Spencer et. al., 1993).

[2] = hGH clearance after bolus administration; type: in vivo; conditions: i.p. or i.v.
Excerpt: Therefore, the observed hGH secretion in this example appears to be a sustained phenomenon.

[3] = system: ZFHD1-FKBPx3 and FRB-p65 fusion proteins, hGH target gene in implanted cells; experiment: Rapamycin-dependent serum hGH in nu/nu mice implanted with transfected HT1080 cells; type: in vivo; conditions: rapamycin i.v. 10-10,000 μg/kg, serum 17 hours after administration
Experimental: Human cells (2×10^6) transfected with plasmids encoding transcription factors ZFHD1-FKBPx3 and FRB-p65 and a target gene directing the expression of human growth hormone (hGH) were injected into the skeletal muscles of nu/nu mice. Mice were treated with the indicated concentration of rapamycin by tail vein injection. After 17 hours, serum hGH levels were determined by ELISA. Each point represents X±SEM (n=at least 5 per point). Control animals received either engineered cells without drug or drug (10^3 or 10^4 μg/kg) without engineered cells.
2×10^6 cells from the transfected HT1080 culture were administered to nu/nu mice by intramuscular injection. Following cell implantation, rapamycin was administered i.v. over a range of doses (from 10-10,000 μg/kg). Serum samples were collected from the mice 17 hours after rapamycin administration. Control groups consisted of mice that received no cells but 1.0 mg/kg rapamycin (i.v.) as well as mice that received the cells but no rapamycin.
Neither control group produced measurable hGH. The limit of detection of the hGH assay is 0.0125 ng/ml.

[4] = system: ZFHD1-FKBPx3 and FRB-p65 fusion proteins, hGH reporter linked to ZFHD1 binding sites; experiment: Rapamycin-dependent hGH expression in transfected HT1080 cell culture; type: cell-based; conditions: HT1080 cells with three constructs
Experimental: Using the approach described in Example 6, constructs were prepared encoding the ZFHD1-FKBPx3 fusion protein, a second fusion protein containing the FKBP:rapaymcin binding (“FRB”) region of FRAP linked to the p65 activation domain, and a reporter cassette containing a gene encoding human growth hormone linked to multiple ZFHD1 binding sites. The natural product, rapamycin, forms a ternary complex with FKBP12 and FRAP. Similarly, rapamycin is capable of binding to one or more of the FKBP domains and FRAP FRB domains of the fusion proteins.

CO[C@H]1C[C@@H](C)C/C(C)=C/[C@@H](CCOC(=O)NCc2ccc(CNC(=O)OCC[C@@H]3/C=C(\C)C[C@H](C)C[C@H](OC)C4O[C@@](O)(C(=O)C(=O)N5CCCC[C@H]5C(=O)OC(/C(C)=C/[C@@H]5CC[C@@H](O)[C@H](OC)C5)[C@H](C)[C@@H](O)CC3=O)[C@H](C)C[C@H]4OC)cc2)C(=O)C[C@H](O)[C@@H](C)C(/C(C)=C/[C@@H]2CC[C@@H](O)[C@H](OC)C2)OC(=O)[C@@H]2CCCCN2C(=O)C(=O)[C@]2(O)OC1[C@H](OC)C[C@H]2C (some centres unmarked) [FK1012]
FK1012 concentration at peak activation [1]: 100 nM

hGH: human growth hormone, reporter gene product; bolus clearance stated
hGH clearance half-life [2]: less than 2 minutes
time to undetectable hGH levels [2]: ≤ 30 min

rapamycin
expression of hGH (circulating hGH) [3]: Dose-responsive expression of hGH
rapamycin-dependent expression of the hGH gene in cell culture [4]: rapamycin-dependent expression of the hGH gene
